Laboratory results: patent US20110206786A1, “Acai and Iridoid Based Formulations” (priority 2010, published 2011)

What was measured:
E. coli PQ37 [1] = assay: Anti-genotoxicity test (SOS-chromotest with 4NQO); format: cell-based; conditions: 250 μg mL^−1 iridoid plus 1.25 μg 4NQO, compared with vehicle blank
Method: The primary DNA damage test was performed again, similar to the method described above. […] Induction factors were calculated in the same manner as described above.

E. coli PQ37 [2] = format: cell-based; conditions: iridoid at 250 ug plus 1.25 ug mL^−1 4NQO; blank = 1
Method: The SOS-chromotest in E. coli PQ37 was used to determine the potential for iridoids in noni fruit from French Polynesia to prevent primary DNA damage. E coli PQ37 was incubated at 37° C. in the presence of deacetylasperulosidic acid and asperulosidic acid at a concentration of 250 ug in a 96-well plate. Replicate samples were evaluated. […] Following incubation with the samples, 5-bromo-4-chloro-3-indolyl-β-D-galactopyranoside was added to the wells to detect β-galactosidase enzyme activity, which is induced during SOS repair of damaged DNA. The samples were again incubated for 90 minutes and the absorbances of the samples, blank and positive control were measured at 620 nm with a microplate reader. The β-galactosidase enzyme activity induction factor of each material was calculated by dividing the absorbance of the sample at 620 nm by that of the blank, while also correcting for cell viability.

[3] = Thermal stability of DAA under pasteurization conditions (HPLC); format: physicochemical; conditions: 90° C. at pH 3.3 for one minute
Method: Tahitian noni fruit puree as used in this example is the mashed whole fruit, excluding seeds and pericarp. The fruits were originally collected from the Tahitian Islands. One gram of the puree was diluted with 5 mL of H2O-MeOH (1:1) and mixed thoroughly. The solution was then filtered through a nylon microfilter (0.45-μm pore size); the solution was collected into a 5 mL volumetric flask for HPLC analysis. Four batches of noni puree were analyzed in the experiments. Voucher specimens of the noni fruit puree are deposited in our lab. To test iridoid stability, a DAA solution of 0.5 mg/mL was prepared with MeOH. This solution was heated in a water-bath at 90° C. for 1 min, cooled to room temperature, and analyzed by HPLC.
Noni fruit juice is usually subjected to heat pasteurization during commercial processing. Pasteurization is usually employed in noni industry, i.e., heating up to 87.7° C. for several seconds. In this study, the stability of DAA was conducted. DAA was exposed to 90° C. at pH 3.3 for one minute to determine its thermal stability at acidic conditions.

Row | SMILES | induction factors of 4NQO plus DAA or AA (E. coli PQ37 [1]) | β-galactosidase enzyme activity induction factor (mean±standard deviation) (E. coli PQ37 [2]) | thermal stability (DAA contents before and after heating) [3]
1 | CC(=O)OCC1=C[C@H](O)[C@@H]2C(C(=O)O)=CO[C@@H](O[C@@H]3O[C@H](CO)[C@@H](O)[C@H](O)[C@H]3O)[C@H]12 [AA, asperulosidic acid] | no statistical difference from that of the vehicle blank | 1.04±0.01 | –
2 | O=C(O)C1=CO[C@@H](O[C@@H]2O[C@H](CO)[C@@H](O)[C@H](O)[C@H]2O)[C@@H]2C(CO)=C[C@H](O)[C@H]12 [DAA, deacetylasperulosidic acid] | no statistical difference from that of the vehicle blank | 0.98±0.02 | no difference in the DAA contents before and after heating
